≈ marks a conversion by molar mass, not a printed value.
Conditions: not given

O=[N+]([O-])c1cncn1CCN1CCOCC1 and Brc1cccc(O[Si]23OCCN(CCO2)CCO3)c1 are within 0.2 log units of each other in logP: 0.07 for the first, 0.26 for the second.

Compared with CN(C(=O)C(Cl)Cl)c1ccc(O)cc1, CC(C)(O)C(=O)Nc1ccc(Cl)cc1 is higher in logP: 1.78 for the first, 2 for the second.

Compared with N#Cc1cc(I)c(O)c(I)c1, CCn1ccc(=O)c(O)c1C is lower in logP: 3.43 for the first, -0.31 for the second.

Compared with CC(=O)N[C@@H](C)C(=O)N[C@@H](C)C(N)=O, CC(C)c1ccc(Br)c(C(C)C)c1NC(=O)CN(CC(=O)O)CC(=O)O is higher in logP: -2 for the first, 0.2 for the second.

NCCc1nccs1 and CCOC(=O)[C@@H](N)Cc1ccc(O)c(O)c1 are within 0.2 log units of each other in logP: 0.16 for the first, 0.28 for the second.

Compared with Brc1cccc(Oc2ccc(Br)c(Br)c2Br)c1, Cc1cccc(Nc2ccccc2C(=O)O)c1 is lower in logP: 6.05 for the first, 4.88 for the second.

First: CCCCN(C)C(=O)Nc1ccc(Cl)c(Cl)c1
Second: CCCOC(=O)[C@@H](N)Cc1ccc(O)c(O)c1
The logP of the first is higher: 4.1 for the first, 0.76 for the second.

Compared with C[C@H](CCC(=O)NCC(=O)O)[C@H]1CC[C@H]2[C@@H]3[C@H](O)[C@H](O)[C@@H]4C[C@H](O)CC[C@]4(C)[C@H]3CC[C@]12C, CCCCC(=O)CCCC is higher in logP: 1.9 for the first, 2.88 for the second.

CC(C)C(C#N)c1ccc([N+](=O)[O-])cc1 (centres undefined) and Cc1cccc(C)c1C#[N+][O-] are within 0.2 log units of each other in logP: 2.8 for the first, 2.74 for the second.

Going from COc1c(Cl)ccc(Cl)c1Cl to COC(=O)c1ccccc1S(N)(=O)=O, the logP falls from 3.64 to 0.01.

Going from CCCCCCN1CCCC1=O to CCCCCCCCCCCCCCO, the logP rises from 2.6 to 6.03.

Compared with C[N+](C)(C)CCCl.[Cl-], CC(=O)c1cccc(NCc2cnc3nc(N)nc(N)c3c2C)c1 is higher in logP: -3.8 for the first, 1.46 for the second.

Compound COC(=O)CCC(=O)OC has a solubility of 171000 µM (≈ 25000 µg/mL).

Same assay, conditions: 20 °C

First: CCOC(C)(C)C
Second: C=CCOC(C)=O
The solubility of the first is 2.4-fold lower: 117000 µM (≈ 12000 µg/mL) for the first, 280000 µM (≈ 28000 µg/mL) for the second.

First: CC(C)OC(=O)c1cc(-c2nn(C)c(C(F)(F)F)c2Br)c(F)cc1Cl
Second: CN(C)c1ccc(C(=O)c2ccc(N(C)C)cc2)cc1
The solubility of the first is 13000-fold lower: 0.119 µM (≈ 0.053 µg/mL) for the first, 1490 µM (≈ 400 µg/mL) for the second.

O=C(O)Cc1ccccc1 gave a solubility of 122000 µM (≈ 16600 µg/mL).

Same assay, conditions: 22 °C

CN(C)C(=O)Nc1cccc(C(F)(F)F)c1 showed a solubility of 366 µM (≈ 85 µg/mL).

Same assay, conditions: 22.0 °C

In the case of COC(F)(F)C(F)(F)C(F)(F)C(F)(F)F, the log10 OH rate constant (cm³/molecule/s) is reported as -14.1.

Same assay, conditions: 23.0 °C

Compared with C=CC(C)(O)CCC=C(C)C (centres undefined), CC1=CCCC(C)=CCC(C)(C)C=CC1 is higher in log10 OH rate constant (cm³/molecule/s): -9.8 for the first, -9.54 for the second.

First: CCCCOCCOCCO
Second: c1ccc2c(c1)ccc1ccccc12
The log10 OH rate constant (cm³/molecule/s) of the first is higher: -10.1 for the first, -10.9 for the second.

O=C1CC=CO1 showed a log10 OH rate constant (cm³/molecule/s) of -10.4.

Same assay, conditions: 24.0 °C

First: Clc1ccccc1-c1ccccc1Cl
Second: c1ccc2cnccc2c1
The log10 OH rate constant (cm³/molecule/s) of the first is lower: -11.7 for the first, -11.1 for the second.

Same assay, conditions: 25 °C

First: CCCCCCCCOC(=O)COc1ccc(Cl)cc1Cl
Second: CCCCCOC(=O)CC
The solubility of the first is 59000-fold lower: 0.0951 µM (≈ 0.0317 µg/mL) for the first, 5620 µM (≈ 810 µg/mL) for the second.

Compared with Clc1ccccc1-c1ccccc1Cl, Cc1c2ccccc2c(C)c2c1ccc1ccccc12 is 55-fold lower in solubility: 8.29 µM (≈ 1.85 µg/mL) for the first, 0.152 µM (≈ 0.039 µg/mL) for the second.

Compared with CC1(C)C2CC3OC3(C)C1C2 (centres undefined), C[Se]C is 88-fold higher in solubility: 2550 µM (≈ 388 µg/mL) for the first, 224000 µM (≈ 24400 µg/mL) for the second.

Oc1ccc(Cl)c2cccnc12 and O=[N+]([O-])c1cc(Cl)ccc1Cl are within 1.5-fold of each other in solubility: 106 µM (≈ 19 µg/mL) for the first, 72.9 µM (≈ 14 µg/mL) for the second.

Going from Cc1ccc(C)cc1 to C=Cc1cccc(C)c1, the solubility falls from 1530 µM (≈ 162 µg/mL) to 753 µM (≈ 89 µg/mL) (2-fold).

CN(C)c1ccc(N=Nc2ccccc2)cc1 and Oc1ccc(N=Nc2ccc(N=Nc3ccccc3)c3ccccc23)cc1 are within 1.5-fold of each other in solubility: 1.02 µM (≈ 0.23 µg/mL) for the first, 0.979 µM (≈ 0.345 µg/mL) for the second.

Compared with O=P(Oc1ccccc1)(Oc1ccccc1)Oc1ccccc1, O=[N+]([O-])c1ccc(F)cc1O is 1500-fold higher in solubility: 5.82 µM (≈ 1.9 µg/mL) for the first, 8910 µM (≈ 1400 µg/mL) for the second.

Compared with CCS(=O)(=O)c1cccnc1S(=O)(=O)NC(=O)Nc1nc(OC)cc(OC)n1, CN/C(=N\C#N)NCCSCc1nc[nH]c1C is higher in solubility: < 23.2 µM for the first, 41000 µM (≈ 10300 µg/mL) for the second.

Going from C=C(C)C(=O)OCCCC to CCCCCCCCCCCCN, the solubility falls from 5630 µM (≈ 800 µg/mL) to 421 µM (≈ 78 µg/mL) (13-fold).

Going from CC(Br)CBr (centres undefined) to CC(Cl)C(Cl)Cl (centres undefined), the solubility rises from 7150 µM (≈ 1440 µg/mL) to 12900 µM (≈ 1900 µg/mL) (1.8-fold).

O=C(O)C(Br)(Br)Br gave a solubility of 674000 µM (≈ 200000 µg/mL).

Same assay, conditions: 25.0 °C

Compared with CCNc1nc(Cl)nc(NCC)n1, COC(=O)CCC(=O)OC is lower in log10 OH rate constant (cm³/molecule/s): -11 for the first, -11.9 for the second.

CC(=O)CCC(C)C and CC(C)CCO are within 0.2 log units of each other in log10 OH rate constant (cm³/molecule/s): -11 for the first, -10.9 for the second.

Going from O=C/C=C/C=O to O=CC(F)F, the log10 OH rate constant (cm³/molecule/s) falls from -10.4 to -11.8.

Compared with c1ccc2[nH]ccc2c1, COc1ccc([N+](=O)[O-])cc1 is lower in log10 OH rate constant (cm³/molecule/s): -9.81 for the first, -11.6 for the second.

FC(F)OC(F)F and FC(F)OC(F)C(F)(F)F (centres undefined) are within 0.2 log units of each other in log10 OH rate constant (cm³/molecule/s): -14.5 for the first, -14.4 for the second.

Compared with CC(C)(C)N, C[Se]C is higher in log10 OH rate constant (cm³/molecule/s): -10.9 for the first, -10.2 for the second.

Going from CC1OCCO1 to CCCBr, the log10 OH rate constant (cm³/molecule/s) falls from -11 to -11.9.

With C=CCOC(C)=O the log10 OH rate constant (cm³/molecule/s) was -10.6.

Same assay, conditions: 27.0 °C

Going from O=Cc1ccoc1 to CNC(C)=O, the log10 OH rate constant (cm³/molecule/s) falls from -10.3 to -11.3.

Same assay, conditions: 30 °C

Going from Brc1ccccc1 to Ic1ccccc1, the solubility falls from 2840 µM (≈ 446 µg/mL) to 1670 µM (≈ 340 µg/mL) (1.7-fold).
